Laboratory results from patent US9067898B1, “Isothiazole derivatives as GPR120 agonists for the treatment of type II diabetes” (Janssen Pharmaceutica NV, priority 2014, dated 2015).

Assays:
[1] = molecular target: T1, short form of the GPR120 receptor (GPR120S) (Homo sapiens, UniProt Q5NUL3); assay: Human GPR120 DiscoveRx PathHunter Beta-Arrestin assay, Procedure β-arrestin B; format: cell-based; details: PathHunter CHO-K1 GPR120S β-Arrestin cell line, 5000 cells/well, read-out: hGPR120 β-arrestin B EC50
T1 construct: host or cells: PathHunter CHO-K1 GPR120S β-Arrestin Cell Line
From the text: The binding of an agonist (medium/long chain fatty acids or small molecule agonists) to the G-protein-coupled receptor GPR120 activates phospholipase C, leading to release of intracellular Ca^+2 through the generation of inositol 1,4,5-trisphosphate (InsP3 or IP3). GPR120 activation can also trigger intracellular signaling via recruitment of Beta-Arrestin. In the present method, agonist-induced activation of the human GPR120 receptor is monitored through the use of PathHunter CHO-K1 GPR120 Beta-Arrestin Cell Line engineered by DiscoveRx, as detailed below. The cell lines are designed to co-express both the ProLink/Enzyme Donor (PK)-tagged GPCR and the Enzyme […] (EA)-tagged Beta-Arrestin fusion proteins. Upon GPR120 receptor stimulation/activation, the EA-tagged Beta-Arrestin portion is translocated to the tagged receptor, where the two enzyme fragments are brought within close proximity. Under these conditions, these fragments can interact and form an active Beta-gal enzyme complex through Enzyme Fragment Complementation (EFC). This active Beta-gal complex can enzymatically hydrolyse the substrate to produce a detectable light signal; therefore, activation as a function of agonist concentration can be expressed as an EC50 value to determine relative compound activities. This in vitro assay therefore serves to assess compound agonist activity of the GPR120. Procedure β-Arrestin A: In Procedure β-arrestin A, the cell used were PathHunter CHO-K1 GPR120 β-Arrestin Cell Line, expressing the long form of human GPR120 (Genbank accession number NM 181745), with 3000 cells per well. Procedure β-Arrestin B: In Procedure 3-arrestin B the cells used were PathHunter CHO-K1 GPR120S β-Arrestin Cell Line, expressing the short form of the GPR120 receptor (Accession #NM_181745), with 5000 cells/well. Assay Procedure:
The selected CHO-K1 GPR120 β-Arrestin cells were cultured in Ham's F12 media supplemented with 10% fetal bovine serum (FBS), 1% Glutamine, lx p/s, 800 μg/mL G418 and 300 μg/mL Hygromycin B (for selection). Cell stocks were maintained and grown in a sub-confluent state using standard cell culture procedures. The day before the experiment, the cells were harvested with non-enzymatic cell dissociation buffer and re-suspended in complete growth media at the desired concentration. A Corning 384-plate was then seeded with the proper number of cells in a volume of 25 μL, per well. The seeded plates were incubated overnight at 37° C.
On the day of the experiment, the Assay Buffer containing (a) HBSS with Ca^++ and Mg^++, (b) 20 mM HEPES, and (c) 0.1% BSA stabilizer (pH 7.4) was prepared. The growth medium was gently removed from the cell plates and 20 μL of Assay Buffer added to each well. The plate was then incubated at 37° C. for 60 min. Test compounds were serially diluted in Assay Buffer to desired concentrations (more particularly to one or more of the following μM concentrations: 25, 12.5, 6.25, 3.125, 1.5625, 0.78125, 0.390625, 0.1953125, 0.09765625, 0.048828125, 0.024414063, 0.012207031). Five μL of compound dilution was then added to each well and the plate incubated at 37° C. for 90 min. The detection reagents were prepared according to the manufacture's instruction. Twelve μL of the detection reagents were added to each well and the plate incubated at room temperature for 60 min.
The plates were read on an EnVision instrument, using Protocol name: Luminescence, Plate type: 384 Costar, Measurement height: 3 mm, Measurement time: 1 s, Aperture: 384 Plate aperture. The % activity relative to the positive control was calculated using the following equation:
The % Activity values were plotted versus the concentration of test compound and fitted to a sigmoidal dose-response curve with a Hill slope=1 (fixed value) using nonlinear regression with GraphPad Prism 5.0 to calculate the EC50 values. […]

Human GPR120 short form = molecular target: T2, Human GPR120 short form (Homo sapiens, UniProt Q5NUL3); assay: Human GPR120 calcium flux assay (FLIPR), Procedure Calcium A; format: cell-based; details: HEK-293 cells expressing human GPR120 short form, 2500 cells/well; read-out: GPR120 Ca2+ Assay A EC50
T2 construct: expressed in transfected cells
T2 sequence (Q5NUL3 1-361): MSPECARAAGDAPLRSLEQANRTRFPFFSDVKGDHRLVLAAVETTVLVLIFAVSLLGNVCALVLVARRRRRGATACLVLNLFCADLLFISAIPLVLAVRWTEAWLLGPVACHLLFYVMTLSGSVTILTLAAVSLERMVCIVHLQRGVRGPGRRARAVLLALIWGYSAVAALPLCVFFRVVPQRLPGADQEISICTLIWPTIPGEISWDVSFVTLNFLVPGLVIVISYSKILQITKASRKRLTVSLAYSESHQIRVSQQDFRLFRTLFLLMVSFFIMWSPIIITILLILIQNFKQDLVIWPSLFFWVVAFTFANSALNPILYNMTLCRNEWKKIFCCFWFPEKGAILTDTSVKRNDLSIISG
Outline: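 HEK293 cells stably expressing the short isoform (NM_001195755.1), 2500/well, starved 1 h, then loaded with Fluo-4 NW plus probenecid (30 min 37 °C, 15 min RT). Compound solutions 0.012–100 μM, 0.2% DMSO final; FLIPR read 300 s after addition. EC50 from Fmax−Fmin fitted to variable-slope sigmoid (Hill <2).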

T1 sequence (P32121 whole entry partner, one chain of several): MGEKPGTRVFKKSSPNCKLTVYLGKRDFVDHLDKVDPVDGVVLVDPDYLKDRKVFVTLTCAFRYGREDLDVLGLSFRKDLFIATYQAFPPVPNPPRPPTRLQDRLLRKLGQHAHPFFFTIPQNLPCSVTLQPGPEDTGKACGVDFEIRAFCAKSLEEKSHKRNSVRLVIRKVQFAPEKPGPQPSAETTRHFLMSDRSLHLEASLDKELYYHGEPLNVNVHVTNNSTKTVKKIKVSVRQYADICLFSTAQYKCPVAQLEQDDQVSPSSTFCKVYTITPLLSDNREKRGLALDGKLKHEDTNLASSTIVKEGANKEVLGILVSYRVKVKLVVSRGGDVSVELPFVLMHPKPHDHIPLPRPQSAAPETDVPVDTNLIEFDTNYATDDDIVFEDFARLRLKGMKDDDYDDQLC

Compound	EC50 [1] [nM]	EC50 (Human GPR120 short form) [nM]
O=C(O)CCc1cc(F)c(OCc2c(C3CCC(F)(F)C3)nsc2C(F)(F)F)c(F)c1 (stereo not drawn) [Cpd 164, 3-(4-[[3-(3,3-difluorocyclopentyl)-5-(trifluoromethyl)-1,2-thiazol-4-yl]methoxy]-3,5-difluorophenyl)propanoic acid]	427	210
CC(Cc1cc(F)c(OCc2c(-c3ccc(F)cc3F)nsc2C(F)(F)F)c(F)c1)C(=O)O (stereo not drawn) [Cpd 196, 3-(4-((3-(2,4-difluorophenyl)-5-(trifluoromethyl)isothiazol-4-yl)methoxy)-3,5-difluorophenyl)-2-methylpropanoic acid]	195	370
O=C(O)CCc1cc(F)c(OCc2c(C3CC(F)(F)C3)nsc2C(F)(F)F)c(F)c1 [Cpd 147, 3-(4-[[3-(3,3-difluorocyclobutyl)-5-(trifluoromethyl)-1,2-thiazol-4-yl]methoxy]-3,5-difluorophenyl) propanoic acid]	390	165
CCc1ccc(-c2nsc(C(F)(F)F)c2COc2c(F)cc(CC(C)C(=O)O)cc2F)c(F)c1 (stereo not drawn) [Cpd 188, 3-(4-((3-(4-ethyl-2-fluorophenyl)-5-(trifluoromethyl)isothiazol-4-yl)methoxy)-3,5-difluorophenyl)-2-methylpropanoic acid]	153	306
Cc1c(CCC(=O)O)ccc(OCc2c(C(F)(F)F)nsc2-c2ccc(Cl)c(F)c2)c1C [Cpd 136, 3-(4-[[5-(4-chloro-3-fluorophenyl)-3-(trifluoromethyl)-1,2-thiazol-4-yl]methoxy]-2,3-dimethylphenyl)propanoic acid]	526	135
Cc1ccc(-c2snc(C(F)(F)F)c2COc2ccc(CCC(=O)O)c(C)c2C)c(F)c1 [Cpd 155, 3-(4-[[5-(2-fluoro-4-methylphenyl)-3-(trifluoromethyl)-1,2-thiazol-4-yl]methoxy]-2,3-dimethylphenyl)propanoic acid]	719	182
CCc1ccc(-c2nsc(C(F)(F)F)c2COc2c(F)cc(CCC(=O)O)cc2F)c(F)c1 [Cpd 128, 3-(4-((3-(4-ethyl-2-fluorophenyl)-5-(trifluoromethyl)isothiazol-4-yl)methoxy)-3,5-difluorophenyl)propanoic acid]	59	124
O=C(O)CCc1ccc(OCc2c(-c3ccc(Cl)cc3)nsc2C(F)(F)F)cc1C(F)(F)F [Cpd 173, 3-(4-[[3-(4-chlorophenyl)-5-(trifluoromethyl)-4-yl]methoxy]-2-(trifluoromethyl)phenyl)propanoic acid]	421	236
CC(Cc1cc(F)c(OCc2c(-c3ccc(Cl)c(F)c3)nsc2C(F)(F)F)c(F)c1)C(=O)O (stereo not drawn) [Cpd 90, 3-(4-((3-(4-chloro-3-fluorophenyl)-5-(trifluoromethyl)isothiazol-4-yl)methoxy)-3,5-difluorophenyl)-2-methylpropanoic acid]	154	67
Cc1ccc(-c2snc(C(F)(F)F)c2COc2ccc(CCC(=O)O)c(C)c2C)c(C)c1 [Cpd 184, 3-(4-[[5-(2,4-dimethylphenyl)-3-(trifluoromethyl)-1,2-thiazol-4-yl]methoxy]-2,3-dimethylphenyl) propanoic acid]	997	300
Cc1ccccc1-c1snc(C(F)(F)F)c1COc1ccc(CCC(=O)O)c(C(F)(F)F)c1 [Cpd 203, 3-(4-[[5-(2-methylphenyl)-3-(trifluoromethyl)-1,2-thiazol-4-yl]methoxy]-2-(trifluoromethyl)phenyl) propanoic acid]	1480	478
Cc1ccc(-c2snc(C(F)(F)F)c2COc2ccc(CCC(=O)O)c(C(F)(F)F)c2)c(F)c1 [Cpd 221, 3-(4-[[5-(2-fluoro-4-methylphenyl)-3-(trifluoromethyl)-1,2-thiazol-4-yl]methoxy]-2-(trifluoromethyl)phenyl)propanoic acid]	731	756
COc1ccc(-c2nsc(C(F)(F)F)c2COc2c(F)cc(CCC(=O)O)cc2F)c(F)c1 [Cpd 151, 3-(3,5-difluoro-4-[[3-(2-fluoro-4-methoxyphenyl)-5-(trifluoromethyl)-1,2-thiazol-4-yl]methoxy]phenyl)propanoic acid]	85	169
3-(4-((3-(4-ethylphenyl)-5-(trifluoromethyl)isothiazol-4-yl)methoxy)-2,3,5-trifluorophenyl)propan-1-ol [Cpd 238]	310	107
O=C(O)CCc1ccc(OCc2c(C(F)(F)F)nsc2-c2ccc(Cl)cc2)cc1OC(F)(F)F [Cpd 159, 3-(4-[[5-(4-chlorophenyl)-3-(trifluoromethyl)-1,2-thiazol-4-yl]methoxy]-2-(trifluoromethoxy)phenyl) propanoic acid]	415	198
Cc1ccc(-c2nsc(C(F)(F)F)c2COc2c(F)cc(CCC(=O)O)cc2F)cc1F [Cpd 91, 3-(3,5-difluoro-4-[[3-(3-fluoro-4-methylphenyl)-5-(trifluoromethyl)-1,2-thiazol-4-yl]methoxy]phenyl)propanoic acid]	31	69
Cc1ccc(-c2snc(Cl)c2COc2ccc(CCC(=O)O)c(C(F)(F)F)c2)c(F)c1 [Cpd 175, 3-(4-[[3-chloro-5-(2-fluoro-4-methylphenyl)-1,2-thiazol-4-yl]methoxy]-2-(trifluoromethyl)phenyl)propanoic acid]	230	247
Cc1ccc(-c2nsc(C(F)(F)F)c2COc2ccc(CCC(=O)O)c(C(F)(F)F)c2)c(F)c1 [Cpd 171, 3-(4-[[3-(2-fluoro-4-methylphenyl)-5-(trifluoromethyl)-1,2-thiazol-4-yl]methoxy]-2-(trifluoromethyl)phenyl)propanoic acid]	1210	226
